Measurements reported in PubChem BioAssay AID1963843 (Molecular Pharmacology Branch, DTP, NCI, 2024).

System: 616215-338-R-J1-PDC complex spheroid viability
Experiment: Anticancer human tumor 616215-338-R-J1-PDC patient-derived colon adenocarcinoma cell line growth inhibition [POLQ]
Conditions: for IC50: curve of first compound; for viability, T/C: stronger effect = lower value
How it was run: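 PDC + HUVEC + MSC complex spheroids; POLQ inhibitors ± partner drugs; top conc. at/near clinical Cmax, else 10 microM (SN-38 1 microM), half-log dilutions; 37 degrees C, 5% CO2.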

[1] = second compound 0.0316 µM, first compound 0.00316 µM
[2] = second compound 0.0316 µM, first compound 0.01 µM
[3] = second compound 0.0316 µM, first compound 0.0316 µM
[4] = second compound 0.0316 µM, first compound 0.1 µM
[5] = second compound 0.0316 µM, first compound 0.316 µM
[6] = second compound 0.0316 µM, first compound 1 µM
[7] = second compound 0.1 µM, first compound 0.00316 µM
[8] = second compound 0.1 µM, first compound 0.01 µM
[9] = second compound 0.1 µM, first compound 0.0316 µM
[10] = second compound 0.1 µM, first compound 0.1 µM
[11] = second compound 0.1 µM, first compound 0.316 µM
[12] = second compound 0.1 µM, first compound 1 µM
[13] = second compound 0.316 µM, first compound 0.00316 µM
[14] = second compound 0.316 µM, first compound 0.01 µM
[15] = second compound 0.316 µM, first compound 0.0316 µM
[16] = second compound 0.316 µM, first compound 0.1 µM
[17] = second compound 0.316 µM, first compound 0.316 µM
[18] = second compound 0.316 µM, first compound 1 µM
[19] = second compound 1 µM, first compound 0.00316 µM
[20] = second compound 1 µM, first compound 0.01 µM
[21] = second compound 1 µM, first compound 0.0316 µM
[22] = second compound 1 µM, first compound 0.1 µM
[23] = second compound 1 µM, first compound 0.316 µM
[24] = second compound 1 µM, first compound 1 µM
[25] = second compound 3.16 µM, first compound 0.00316 µM
[26] = second compound 3.16 µM, first compound 0.01 µM
[27] = second compound 3.16 µM, first compound 0.0316 µM
[28] = second compound 3.16 µM, first compound 0.1 µM
[29] = second compound 3.16 µM, first compound 0.316 µM
[30] = second compound 3.16 µM, first compound 1 µM
[31] = second compound 10 µM, first compound 0.00316 µM
[32] = second compound 10 µM, first compound 0.01 µM
[33] = second compound 10 µM, first compound 0.0316 µM
[34] = second compound 10 µM, first compound 0.1 µM
[35] = second compound 10 µM, first compound 0.316 µM
[36] = second compound 10 µM, first compound 1 µM
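Further: spheroids exposed to compounds for one week before readout.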
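Wherever viability, T/C is given: percent viability relative to DMSO vehicle wells taken as 100%.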

CCc1c2c(nc3ccc(O)cc13)-c1cc3c(c(=O)n1C2)COC(=O)[C@]3(O)CC + Nc1ccc(C#CCN(C(=O)Cc2ncc(C(F)(F)F)cc2C(F)(F)F)c2ccc(F)cc2)nn1
IC50 (second compound 0.0316 µM): 10.4 nM | IC50 (second compound 0.1 µM): 14.8 nM | IC50 (second compound 0.316 µM): 18.1 nM | IC50 (second compound 1 µM): 8.73 nM | IC50 (second compound 3.16 µM): 8.16 nM | IC50 (second compound 10 µM): 7.26 nM | viability, T/C [1]: 82.6% | viability, T/C [2]: 51.4% | viability, T/C [3]: 28.6% | viability, T/C [4]: 23.1% | viability, T/C [5]: 15.7% | viability, T/C [6]: 9.67% | viability, T/C [7]: 85.5% | viability, T/C [8]: 55.2% | viability, T/C [9]: 33.7% | viability, T/C [10]: 32.2% | viability, T/C [11]: 15.5% | viability, T/C [12]: 9.4% | viability, T/C [13]: 72.8% | viability, T/C [14]: 71% | viability, T/C [15]: 30.3% | viability, T/C [16]: 28.1% | viability, T/C [17]: 17.3% | viability, T/C [18]: 10.2% | viability, T/C [19]: 83.8% | viability, T/C [20]: 37.8% | viability, T/C [21]: 34% | viability, T/C [22]: 28.9% | viability, T/C [23]: 17% | viability, T/C [24]: 10.2% | viability, T/C [25]: 77.6% | viability, T/C [26]: 39.2% | viability, T/C [27]: 29.3% | viability, T/C [28]: 28.6% | viability, T/C [29]: 11.9% | viability, T/C [30]: 10.9% | viability, T/C [31]: 59.2% | viability, T/C [32]: 47.8% | viability, T/C [33]: 28.5% | viability, T/C [34]: 22.5% | viability, T/C [35]: 16.1% | viability, T/C [36]: 12.8%

C=CCn1c(=O)c2cnc(Nc3ccc(N4CCN(C)CC4)cc3)nc2n1-c1cccc(C(C)(C)O)n1 + COC1C(OC(N)=O)C(O)C(Oc2ccc3c(O)c(NC(=O)c4ccc(O)c(CC=C(C)C)c4)c(=O)oc3c2C)OC1(C)C
IC50 (second compound 0.0316 µM): > 1000 nM | IC50 (second compound 0.1 µM): > 1000 nM | IC50 (second compound 0.316 µM): > 1000 nM | IC50 (second compound 1 µM): > 1000 nM | IC50 (second compound 3.16 µM): > 1000 nM | IC50 (second compound 10 µM): > 1000 nM | viability, T/C [1]: 102% | viability, T/C [2]: 97.8% | viability, T/C [3]: 97.2% | viability, T/C [4]: 113% | viability, T/C [5]: 97.8% | viability, T/C [6]: 91.8% | viability, T/C [7]: 105% | viability, T/C [8]: 101% | viability, T/C [9]: 89.2% | viability, T/C [10]: 103% | viability, T/C [11]: 95.3% | viability, T/C [12]: 55.8% | viability, T/C [13]: 94.3% | viability, T/C [14]: 106% | viability, T/C [15]: 101% | viability, T/C [16]: 97.8% | viability, T/C [17]: 95.2% | viability, T/C [18]: 59.4% | viability, T/C [19]: 105% | viability, T/C [20]: 94.5% | viability, T/C [21]: 101% | viability, T/C [22]: 103% | viability, T/C [23]: 90.7% | viability, T/C [24]: 61.5% | viability, T/C [25]: 93.8% | viability, T/C [26]: 104% | viability, T/C [27]: 100% | viability, T/C [28]: 98.2% | viability, T/C [29]: 93.9% | viability, T/C [30]: 61.4% | viability, T/C [31]: 105% | viability, T/C [32]: 100% | viability, T/C [33]: 98.3% | viability, T/C [34]: 103% | viability, T/C [35]: 87.7% | viability, T/C [36]: 67.3%

CC[C@@]1(O)C(=O)OCc2c1cc1n(c2=O)Cc2cc3c(CN(C)C)c(O)ccc3nc2-1 + Nc1ccc(C#CCN(C(=O)Cc2ncc(C(F)(F)F)cc2C(F)(F)F)c2ccc(F)cc2)nn1
IC50 (second compound 0.0316 µM): 69.9 nM | IC50 (second compound 0.1 µM): 73 nM | IC50 (second compound 0.316 µM): 66.3 nM | IC50 (second compound 1 µM): 66.6 nM | IC50 (second compound 3.16 µM): 59.4 nM | IC50 (second compound 10 µM): 46.1 nM | viability, T/C (second compound 0.0316 µM, first compound 0.000316 µM): 112% | viability, T/C (second compound 0.0316 µM, first compound 0.001 µM): 105% | viability, T/C [1]: 100% | viability, T/C [2]: 101% | viability, T/C [3]: 89.4% | viability, T/C [4]: 32.3% | viability, T/C (second compound 0.1 µM, first compound 0.000316 µM): 103% | viability, T/C (second compound 0.1 µM, first compound 0.001 µM): 103% | viability, T/C [7]: 98.1% | viability, T/C [8]: 102% | viability, T/C [9]: 83.4% | viability, T/C [10]: 37.5% | viability, T/C (second compound 0.316 µM, first compound 0.000316 µM): 111% | viability, T/C (second compound 0.316 µM, first compound 0.001 µM): 119% | viability, T/C [13]: 98.6% | viability, T/C [14]: 99.3% | viability, T/C [15]: 79.8% | viability, T/C [16]: 33.6% | viability, T/C (second compound 1 µM, first compound 0.000316 µM): 108% | viability, T/C (second compound 1 µM, first compound 0.001 µM): 96.6% | viability, T/C [19]: 107% | viability, T/C [20]: 104% | viability, T/C [21]: 66.1% | viability, T/C [22]: 41.1% | viability, T/C (second compound 3.16 µM, first compound 0.000316 µM): 97.9% | viability, T/C (second compound 3.16 µM, first compound 0.001 µM): 108% | viability, T/C [25]: 98.2% | viability, T/C [26]: 98.3% | viability, T/C [27]: 75.3% | viability, T/C [28]: 29.1% | viability, T/C (second compound 10 µM, first compound 0.000316 µM): 85.5% | viability, T/C (second compound 10 µM, first compound 0.001 µM): 90.1% | viability, T/C [31]: 96.4% | viability, T/C [32]: 94.2% | viability, T/C [33]: 55.8% | viability, T/C [34]: 38%
